Results as given in patent publication US20250262189A1, “TREATMENT OF DISEASES ASSOCIATED WITH REDUCTIVE STRESS” (RDiscovery, LLC, priority 2022, published 2025).
“Also recorded” adds a separate entry of the source.

Tested on: GDF-15 expression in HUVEC cells
Assay: GDF-15 mRNA expression by RT-qPCR in HUVEC cells under AZT-induced reductive stress
Assay type: cell-based, Human
Conditions: AZT 5 μM with ZLN-005 1 μM, harvested Day 6, two sets of runs (FIG. 1, FIG. 2), AZT vs. AZT/ZLN P=0.016 (FIG. 2)
Description: A study was performed to evaluate the ability of ZLN-005 to mitigate the effects of reductive stress induced by azidothymidine (AZT), which is believed to inhibit mitochondrial respiratory chain complex I and II.
Human human umbilical vein endothelial (HUVEC) cells were cultured in HuMedia-EG2 medium (Kurabo) at 5×10^4 cells per well in a six-well plate. Medium was supplemented with AZT (Sigma) at 5 μM, with or without ZLN-005 at 1 μM. Cells cultured without AZT and without ZLN-005 were used as non-treated control (NTC)). Medium was changed on days 2 and 4. Cells were harvested on Day 6 for analysis of GDF-15 mRNA expression by quantitative reverse transcription PCR (RT-qPCR).

SMILES: CC(C)(C)c1ccc(-c2nc3ccccc3[nH]2)cc1 [ZLN-005, 2-(4-tert-butylphenyl)-1H-benzimidazole]
- GDF-15 expression compared to cells treated with AZT but not ZLN-005: reduced GDF-15 expression; also recorded: decreases expression of reductive stress biomarker GDF-15
